Experimental data: PMC7906094 (Cancer chemotherapy and pharmacology, 2020)

Key:
[1] = test system: primary human hepatocytes; settings: human hepatocytes, tenofovir 0.5 μM, emtricitabine 7.2 μM; for impact of co-incubation on triapine half-life: triapine 6 μM
CYP3A4 [2] = settings: cited from earlier work
CYP3A5 = settings: cited from earlier work
CYP3A4 [3] = settings: cited from earlier work; remark: listed apart in the source
CYP = assay: Triapine metabolism in human liver microsomes, pH 7.4; format: in vitro ADME; settings: human, human liver microsomes fortified with NADPH, pH 7.4
[4] = test system: human liver microsomes (CYP); assay: as above; format: in vitro ADME
[5] = test system: human liver microsomes (FMO); assay: Triapine metabolism in human liver microsomes, pH 8.4; format: in vitro ADME
[6] = test system: human liver microsomal glucuronyltransferases; assay: Triapine metabolism by glucuronosyltransferases in human liver microsomes; format: in vitro ADME; settings: human liver microsomes + UDPGA, 120-minute incubation
[7] = test system: aldehyde oxidase (AO) and xanthine oxidase (XO); assay: Triapine metabolism in human liver cytosol with high AO/XO activity; format: in vitro ADME; settings: 90-minute incubation, human liver cytosol enriched in AO/XO, presence or absence of raloxifene and allopurinol
[8] = test system: monoamine oxidases (MAO)-A/B; assay: Triapine metabolism in human liver mitochondria; format: in vitro ADME; settings: presence or absence of MAO-A and B inhibitors
[9] = test system: primary human hepatocytes; assay: Triapine metabolism in human hepatocytes with enzyme inhibitors; format: in vitro ADME; settings: in the presence of non-isoform specific CYP inhibitor N-benzyl imidazole
CYP2C19 = CYP2C19 (Homo sapiens, UniProt P33261); format: in vitro ADME; settings: triapine 6 μM, human liver microsomes
Chain of CYP2C19 (P33261 whole entry): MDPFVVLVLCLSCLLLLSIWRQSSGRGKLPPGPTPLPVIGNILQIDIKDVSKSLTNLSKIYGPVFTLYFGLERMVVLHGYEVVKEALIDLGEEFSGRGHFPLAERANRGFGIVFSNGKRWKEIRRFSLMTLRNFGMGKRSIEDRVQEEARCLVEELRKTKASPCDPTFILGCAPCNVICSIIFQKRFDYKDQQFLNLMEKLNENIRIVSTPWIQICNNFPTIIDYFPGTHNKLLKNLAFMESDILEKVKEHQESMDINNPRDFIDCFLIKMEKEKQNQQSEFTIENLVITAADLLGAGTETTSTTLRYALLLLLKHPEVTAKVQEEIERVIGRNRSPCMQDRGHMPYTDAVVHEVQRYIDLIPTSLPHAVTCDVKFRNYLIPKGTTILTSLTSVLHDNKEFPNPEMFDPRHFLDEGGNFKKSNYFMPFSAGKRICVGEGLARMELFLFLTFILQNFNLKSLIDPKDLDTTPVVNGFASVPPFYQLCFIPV

[10] = cited from earlier work
[11] = human, primary human hepatocytes
CYP2C9 = settings: microsomes; cited from earlier work
CYP3A4 [12] = settings: cited from earlier work; remark: listed apart in the source

Q: Which “impact of co-incubation on %triapine remaining after 48 hours” value [1] does the source give for `C[C@H](Cn1cnc2c(N)ncnc21)OCP(=O)(O)O` [tenofovir] here?
A: not significantly different

Q: What about the “impact of co-incubation on triapine AUC0–48h” value [1] of the same compound?
A: not significantly different

Q: And the “impact of co-incubation on triapine half-life” value [1]?
A: not impacted

Q: Which “effect on CYP3A4 catalytic activity” value (CYP3A4 [2]) does the source give for `O=C(O)CC(O)(CC(=O)O)C(=O)O` [citrate] here?
A: stimulated

Q: With `CNC(=O)c1cc(Oc2ccc(NC(=O)Nc3ccc(Cl)c(C(F)(F)F)c3)cc2)ccn1` [Sorafenib] as the compound, how does the “effect on midazolam 1'-hydroxylation by CYP3A5” value (CYP3A5) read?
A: activated

Q: And the “effect on midazolam 1'-hydroxylation by CYP3A4” value (CYP3A4 [3])?
A: inhibited

Q: What does the source list for `CCN(CC)CCNC(=O)c1c(C)[nH]c(/C=C2\C(=O)Nc3ccc(F)cc32)c1C` [sunitinib]?
A: effect on midazolam 1'-hydroxylation by CYP3A5 (CYP3A5): activated; effect on midazolam 1'-hydroxylation by CYP3A4 (CYP3A4 [3]): inhibited

Q: Which results are given for `NC(=S)NN=Cc1ncccc1N` [Triapine, 3-aminopyridine-2-carboxaldehyde thiosemicarbazone]?
A: half-life at 6 μM (CYP): ~3 h; depletion of triapine ([4]; NADPH-fortified human liver microsomes pH 7.4 in the presence of CYP non-specific inhibitor N-benzyl imidazole (1 mM)): Minimal depletion; triapine remaining intact ([4]; control incubation without either NADPH or microsomes, after 2 h): > 95%; triapine disappeared ([5]; human liver microsomes, phosphate buffer pH 8.4, fortified with NADPH, within 2 h): 17%; depletion of triapine ([5]; pH 8.4, control incubation without NADPH): 9%; depletion of triapine ([5]; pH 8.4, in the presence of FMO inhibitor methimazole (200 μM)): 9%; triapine remaining [6]: 100.3%; metabolism of triapine [7]: did not undergo metabolism; triapine depletion [8]: no triapine depletion; triapine metabolism in hepatocytes [9]: inhibited; increase of metabolism of CYP2C19 probe S-mephenytoin (CYP2C19): 20%; Cmax ([10]; after intravenous or oral dosing): ~5 µM; total body clearance ([10]; humans, intravenous administration): 57.5 ± 25 L/h; time to reach Cmax ([10]; humans, oral administration): 1.9 ± 1.4 h; urinary excretion ([10]; humans): minimal; half-life at 6 μM [11]: 8 h

Q: With `CC#N` [acetonitrile] as the compound, how does the “stimulation of CYP2C9 mediated tolbutamide hydroxylation” value (CYP2C9) read?
A: 2–3 fold

Q: Which results are given for `C=C[C@H]1C[N@@]2CC[C@H]1C[C@@H]2[C@@H](O)c1ccnc2ccc(OC)cc12` [quinidine]?
A: increase of CYP3A4 Vmax for R-warfarin 10-hydroxylation (CYP3A4 [12]): 5 fold; increase of CYP3A4 Vmax for S-warfarin 4'-hydroxylation (CYP3A4 [12]): 2.5 fold; increase of CYP3A4 mediated 5-, 5'-, and 10-hydroxylation of diclofenac, piroxicam and R-warfarin (CYP3A4 [12]): 5–7 fold

Q: Which results are given for `Nc1nc(=O)n([C@@H]2CS[C@H](CO)O2)cc1F` [emtricitabine]?
A: impact of co-incubation on %triapine remaining after 48 hours [1]: not significantly different; impact of co-incubation on triapine AUC0–48h [1]: not significantly different; impact of co-incubation on triapine half-life [1]: not impacted

Q: For `CC(C)=O` [acetone], which “stimulation of CYP2C9 mediated tolbutamide hydroxylation” value (CYP2C9) is on record?
A: 2–3 fold
